In assay [1] the test system is TGF-beta-induced phosphorylation of Smad2 (Ser465/467) and Smad3 (Ser423/425) in Mv1-Lu cells. In words: Inhibition of Smad2/3 phosphorylation in Mv1Lu cells (PathScan Phospho-Smad2 ELISA). The assay is classed as cell-based, mink Mustela vison. As to conditions: Neogale vison, read-out: TβR activity (Example 51). How it is done:
Inhibition of Smad2/3 Phosphorylation in Mv1 Lu Cells by TGF-Beta Receptor I Kinase Inhibitors
This assay was used to determine the inhibitory potency of compounds on TGF-beta-induced phosphorylation of Smad2 (Ser465/467) and Smad3 (Ser423/425). Mv1-Lu cells (lung epithelial cell line from mink Mustela vison; ATCC number: CCL-64) were seeded in DMEM (Invitrogen) supplemented with 10% fetal bovine serum (Pan Biotech) at a defined cell density in 24-well or 96-well plates (24-well plate: 1.5×10^5 cells per well; 96-well plate: 4×10^4 cells per well). Cell cultures were incubated in DMEM at 37° C. and 10% CO2. On the next day, the medium was replaced and cells were serum-starved for 16-20 hours. The following day, serial dilutions of compounds were added to the wells, pre-incubated for 1.5 hrs before recombinant TGF-beta 1 ligand (final concentration 5 ng/ml; R&D systems) was added. After one hour of ligand stimulation, lysates were prepared and analyzed using an enzyme-linked immunosorbent assay kit (PathScan Phospho-Smad2 Kit, Cell Signaling Technologies). The ELISA detects phosphorylated Smad2 as well as phosphorylated Smad3 with the phospho-specific antibody. TGF-beta stimulated cells and unstimulated cells served as positive and negative controls (100% and background control). The concentration of the vehicle DMSO was kept constant at 0.2% (v/v) in all wells. Dose-response relationships were fitted using curve fitting algorithms of the RS1 statistics software package (Brooks Automation Inc. RS/1- Statistical Tools Handbook. Release 6.2) to determine the concentration at which half-maximal inhibition (IC50) of Smad2/3 phosphorylation was achieved.
(In an ELISA, binding on a coated surface is turned into a signal by an enzyme label.)

Assay [2] deals with T1, GST-ALK5 (TGF-beta receptor kinase) (Homo sapiens, UniProt P36897).
T1 sequence (P36897 34-503): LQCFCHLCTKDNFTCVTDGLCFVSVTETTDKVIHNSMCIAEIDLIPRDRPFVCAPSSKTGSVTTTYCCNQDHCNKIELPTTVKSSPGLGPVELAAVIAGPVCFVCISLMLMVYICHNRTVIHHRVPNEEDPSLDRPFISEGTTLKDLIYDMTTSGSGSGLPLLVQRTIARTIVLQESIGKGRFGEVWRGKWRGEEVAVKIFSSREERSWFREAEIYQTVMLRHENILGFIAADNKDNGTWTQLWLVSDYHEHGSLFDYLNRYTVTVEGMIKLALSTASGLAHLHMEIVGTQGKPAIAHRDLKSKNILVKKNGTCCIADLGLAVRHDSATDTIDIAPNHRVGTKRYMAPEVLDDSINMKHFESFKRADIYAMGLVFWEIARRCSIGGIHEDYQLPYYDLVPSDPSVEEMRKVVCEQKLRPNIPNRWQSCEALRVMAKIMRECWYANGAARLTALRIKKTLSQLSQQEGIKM
As to the kind of experiment: In-vitro (enzyme) kinase flashplate assay: GST-ALK5 phosphorylation of GST-SMAD2 with 33P-ATP. As to conditions: 384-well flashplate kinase assay, GST-ALK5 / GST-SMAD2, 33P-ATP, 30° C., 45 min; read-out: TβR activity (Example 50). The assay is classed as biochemical. How it is done: In-vitro (Enzyme) Assay for Determination of the Efficacy of Inhibitors of the Inhibition of TGF-Beta-Mediated Effects
The kinase assay was carried out as 384-well flashplate assay. 31.2 nM of GST-ALK5, 439 nM of GST-SMAD2 and 3 mM of ATP (with 0.3 μCi of ^33P-ATP/well) were incubated in a total volume of 35 μl (20 mM of HEPES, 10 mM of MgCl2, 5 mM of MnCl2, 1 mM of DTT, 0.1% of BSA, pH 7.4) without or with test substance (5-10 concentrations) at 30° C. for 45 min. The reaction was stopped using 25 μl of 200 mM EDTA solution, filtered with suction at room temperature after 30 min, and the wells were washed with 3 times 100 μl of 0.9% NaCl solution. Radioactivity was measured in the TopCount. The IC50 values were calculated using RS1.

[3] abbreviates: Mv1-Lu cells, TGF-beta 1 5 ng/ml, Phospho-Smad2/3 ELISA.

Structures are written as SMILES. pIC50: −log10 of the molar value. Structures can show the parent of a compound that is named as a salt. Where two headings read alike, the source gives them in different places.

As to `Cc1cccc(-c2cc(-c3cccc4c(N)nccc34)c3cccnc3n2)n1` [Compound 6, 5-[2-(6-Methyl-pyridin-2-yl)-[1,8]naphthyridin-4-yl]-isoquinolin-1-ylamine], the pIC50 in assay [1] (setting [3]) and in assay [2] was more than 6.00 each time.

`Cc1occc1-c1cc(-c2c[nH]c3cnccc23)c2cccnc2n1` [Compound 108, 2-(2-Methyl-furan-3-yl)-4-(1H-pyrrolo[2,3-c]pyridin-3-yl)-[1,8]naphthyridine]: the pIC50 in assay [1] (setting [3]) and in assay [2] was more than 6.00 each time.

In the case of `Fc1ccc(Cl)cc1-c1cc(-c2ccc(Cl)c3cnccc23)c2cccnc2n1` [Compound 83, 2-(5-Chloro-2-fluoro-phenyl)-4-(8-chloro-isoquinolin-5-yl)-[1,8]naphthyridine], the pIC50 in assay [1] (setting [3]) and in assay [2] was more than 6.00 each time.

In the case of `Nc1ccc(-c2cc(-c3cc(F)ccc3F)nc3ncccc23)c2ccncc12` [Compound 38, 5-[2-(2,5-Difluoro-phenyl)-[1,8]naphthyridin-4-yl]-isoquinolin-8-ylamine], the pIC50 in assay [1] (setting [3]) and in assay [2] was more than 6.00 each time.

As to `Nc1nccc2c(-c3cc(-c4ccccc4F)nc4ncccc34)nccc12` [Compound 14, 5-[2-(2-Fluoro-phenyl)-[1,8]naphthyridin-4-yl]-[2,6]naphthyridin-1-ylamine], the pIC50 in assay [1] (setting [3]) and in assay [2] was more than 6.00 each time.

Regarding `OCCOc1ccc(-c2cc(-c3ccccc3F)nc3ncccc23)c2ccncc12` [Compound 39, 2-{5-[2-(2-Fluoro-phenyl)-[1,8]naphthyridin-4-yl]-isoquinolin-8-yloxy}-ethanol], the pIC50 in assay [1] (setting [3]) was more than 6.00.

`Fc1ccc(Cl)cc1-c1cc(-c2nccc3cnccc23)c2cccnc2n1` [Compound 35, 2-(5-Chloro-2-fluoro-phenyl)-4-[2,6]naphthyridin-1-yl-[1,8]naphthyridine]: the pIC50 in assay [1] (setting [3]) and in assay [2] was more than 6.00 each time.

`O=c1c2cnccc2c(-c2cc(-c3cc(Cl)ccc3F)nc3ncccc23)cn1CCO` [Compound 68, 4-[2-(5-Chloro-2-fluoro-phenyl)-[1,8]naphthyridin-4-yl]-2-(2-hydroxy-ethyl)-2H-[2,7]naphthyridin-1-one]: the pIC50 in assay [1] (setting [3]) and in assay [2] was more than 6.00 each time.

Consider `Nc1ncnc2c(-c3cc(-c4ccccc4F)nc4ncccc34)cccc12` [Compound 15, 8-[2-(2-Fluoro-phenyl)-[1,8]naphthyridin-4-yl]-quinazolin-4-ylamine], for which the pIC50 in assay [1] (setting [3]) was 5.00 to 6.00.

Regarding `O=c1c2cnccc2c(-c2cc(-c3cc(Cl)ccc3F)nc3ncccc23)cn1CC(O)CO` (centres unmarked) [Compound 81, 4-[2-(5-Chloro-2-fluoro-phenyl)-[1,8]naphthyridin-4-yl]-2-(2,3-dihydroxy-propyl)-2H-[2,7]naphthyridin-1-one], the pIC50 in assay [1] (setting [3]) and in assay [2] was more than 6.00 in each case.

On to `Fc1ccccc1-c1cc(-c2cccc3cnccc23)c2cccnc2n1` [Compound 19, 2-(2-Fluoro-phenyl)-4-isoquinolin-5-yl-[1,8]naphthyridine], for which the pIC50 in assay [1] (setting [3]) and in assay [2] was more than 6.00 throughout.

`COc1ccc2cnccc2c1-c1cc(-c2ccccc2F)nc2ncccc12` [Compound 70, 2-(2-Fluoro-phenyl)-4-(6-methoxy-isoquinolin-5-yl)-[1,8]naphthyridine]: the pIC50 in assay [1] (setting [3]) and in assay [2] was more than 6.00 in each case.

As to `Nc1cc2c(-c3cc(-c4cc(Cl)ccc4F)nc4ncccc34)cccc2cn1` [Compound 49, 5-[2-(5-Chloro-2-fluoro-phenyl)-[1,8]naphthyridin-4-yl]-isoquinolin-3-ylamine], in assay [1] (setting [3]), the pIC50 is less than 5.00.

Turning to `[O-][n+]1ccc2c(-c3cc(-c4ccccc4F)nc4ncccc34)nccc2c1` [Compound 88, 2-(2-Fluoro-phenyl)-4-(6-oxy-[2,6]naphthyridin-1-yl)-[1,8]naphthyridine], the pIC50 in assay [1] (setting [3]) and in assay [2] was less than 5.00 each time.

Take `CCN(CC)CCn1cc(-c2cc(-c3cc(Cl)ccc3F)nc3ncccc23)c2ccncc2c1=O` [Compound 104, 4-[2-(5-Chloro-2-fluoro-phenyl)-[1,8]naphthyridin-4-yl]-2-(2-diethylamino-ethyl)-2H-[2,7]naphthyridin-1-one]: the pIC50 in assay [1] (setting [3]) and in assay [2] was 5.00 to 6.00 in each case.

Take `Nc1nccc2c(-c3cc(-c4cc(F)ccc4F)nc4ncccc34)cccc12` [Compound 10, 5-[2-(2,5-Difluoro-phenyl)-[1,8]naphthyridin-4-yl]-isoquinolin-1-ylamine]: the pIC50 in assay [1] (setting [3]) and in assay [2] was more than 6.00 in each case.

Regarding `Nc1nccc2c(-c3cc(-c4ccccc4F)nc4ncccc34)cccc12` [Compound 9, 5-[2-(2-Fluoro-phenyl)-[1,8]naphthyridin-4-yl]-isoquinolin-1-ylamine], the pIC50 in assay [1] (setting [3]) and in assay [2] was more than 6.00 each time.

For the molecule `CCN(CC)CCOc1ccc(-c2cc(-c3cc(Cl)ccc3F)nc3ncccc23)c2ccncc12` [Compound 86, (2-{5-[2-(5-Chloro-2-fluoro-phenyl)-[1,8]naphthyridin-4-yl]-isoquinolin-8-yloxy}-ethyl)-diethyl-amine], the pIC50 in assay [1] (setting [3]) and in assay [2] was more than 6.00 in each case.

Regarding `Fc1ccc(Cl)cc1-c1cc(-c2c[nH]c3cnccc23)c2cccnc2n1` [Compound 1, 2-(5-Chloro-2-fluoro-phenyl)-4-(1H-pyrrolo[2,3-c]pyridin-3-yl)-[1,8]naphthyridine], the pIC50 in assay [1] (setting [3]) and in assay [2] was more than 6.00 each time.

With `Fc1ccc(Cl)cc1-c1cc(-c2cnc(OCCN3CCCC3)c3cnccc23)c2cccnc2n1` [Compound 100, 2-(5-Chloro-2-fluoro-phenyl)-4-[1-(2-pyrrolidin-1-yl-ethoxy)-[2,7]naphthyridin-4-yl]-[1,8]naphthyridine], the pIC50 in assay [1] (setting [3]) and in assay [2] was more than 6.00 each time.

Regarding `Nc1nccc2c(-c3cc(-c4cc(F)ccc4F)nc4ncccc34)nccc12` [Compound 20, 5-[2-(2,5-Difluoro-phenyl)-[1,8]naphthyridin-4-yl]-[2,6]naphthyridin-1-ylamine hydrochloride], the pIC50 in assay [1] and in assay [2] was more than 6.00 throughout.

For the molecule `O=[N+]([O-])c1ccc(-c2cc(-c3ccccc3F)nc3ncccc23)c2ccncc12` [Compound 16, 2-(2-Fluoro-phenyl)-4-(8-nitro-isoquinolin-5-yl)-[1,8]naphthyridine], in assay [1] (setting [3]), the pIC50 was more than 6.00.

With `CC(=O)Nc1nccc2c(-c3cc(-c4ccccc4F)nc4ncccc34)nccc12` [Compound 69, N-{5-[2-(2-Fluoro-phenyl)-[1,8]naphthyridin-4-yl]-[2,6]naphthyridin-1-yl}-acetamide], in assay [2], the pIC50 was more than 6.00.

With `Nc1ccc(-c2cc(-c3ccccc3F)nc3ncccc23)c2ccncc12` [Compound 41, 5-[2-(2-Fluoro-phenyl)-[1,8]naphthyridin-4-yl]-isoquinolin-8-ylamine], the pIC50 in assay [1] (setting [3]) is more than 6.00.

Regarding `Nc1ncnc2c(-c3cc(-c4ccccc4F)nc4ncccc34)nccc12` [Compound 36, 8-[2-(2-Fluoro-phenyl)-[1,8]naphthyridin-4-yl]-pyrido[3,4-d]pyrimidin-4-ylamine], the pIC50 in assay [1] (setting [3]) is less than 5.00.

As to `COCCn1cc(-c2cc(-c3cc(Cl)ccc3F)nc3ncccc23)c2ccncc21` [Compound 5, 2-(5-Chloro-2-fluoro-phenyl)-4-[1-(2-methoxy-ethyl)-1H-pyrrolo[2,3-c]pyridin-3-yl]-[1,8]naphthyridine], the pIC50 in assay [1] (setting [3]) was more than 6.00.

Source of the values: patent US8791113B2, “2,4-diaryl-substituted [1,8] naphthyridines as kinase inhibitors for use against cancer” (Merck Patent GmbH, priority 2010, dated 2014).
